# Laboratory results published in patent US7662994B2, “Method for the preparation of crystalline dexloxiglumide and products obtained” (Rottapharm S.p.A., priority 2003, dated 2010).
# Columns and labels:
# [1] = target: T1, type-1 cholecystokinin (CCK1) receptor (Homo sapiens, UniProt P32238); conditions: cited from earlier work
# T1 sequence (P32238 1-428): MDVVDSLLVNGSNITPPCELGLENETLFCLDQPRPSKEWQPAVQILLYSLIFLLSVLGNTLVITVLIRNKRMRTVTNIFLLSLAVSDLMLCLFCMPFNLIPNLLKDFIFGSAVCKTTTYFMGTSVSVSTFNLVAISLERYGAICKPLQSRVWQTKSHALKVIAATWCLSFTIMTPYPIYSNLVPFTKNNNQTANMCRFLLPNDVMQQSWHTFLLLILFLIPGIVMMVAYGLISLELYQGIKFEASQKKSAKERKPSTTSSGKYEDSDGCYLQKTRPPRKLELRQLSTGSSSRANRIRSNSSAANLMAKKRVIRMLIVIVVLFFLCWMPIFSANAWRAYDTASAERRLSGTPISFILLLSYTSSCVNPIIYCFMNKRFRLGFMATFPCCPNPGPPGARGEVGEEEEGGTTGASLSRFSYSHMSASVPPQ
# [2] = Compressibility of the powder (Carr index, USP 24/NF19); format: physicochemical; conditions: 100 g powder, 250 ml graduated cylinder, 2000 strokes; percentage values 5-15 excellent, >33 very poor
# Experimental: a) measurement of the compressibility of the powder which is expressed by the following formula (Carr index; (according to USP 24/NF19, p. 1914): [formula] where Vo and Vf are respectively the volumes occupied by a predetermined weighed quantity of powder (generally 100 g) placed in a 250 ml graduated cylinder and measured before and after a certain number of mechanical strokes (generally 2000 strokes); the smaller this index is the better will be the behaviour of the powder upon compression; for example, percentage values between 5-15 are considered excellent, whereas values greater than 33 are considered very poor (see J. I. Wells—Pharmaceutical Preformulation; Ellis H. Lim; J. Wiley and Sons Ed. p.
# [3] = Particle size distribution by laser light scattering (Malvern Master Sizer 2000, wet method); format: physicochemical; conditions: for span index: (D90-D10)/D50 type width of distribution; for D50 (mean size measurement) / percentage of particles <10 μm (fine particles): wet method, H2O with 0.5% Tween 20, sonication 60 sec
# Experimental: The PSD is determined by the “laser light scattering” technique, that is, the scattering (diffraction) which a high-energy, monochromatic light beam (a laser beam) undergoes when it encounters a particle of a particular size on its optical path. The powder to be examined may be prepared by various techniques, both dry and wet; in the latter case, the selection of the dispersant should take account of the chemical/physical properties of the raw material to be analyzed. Once the sample has been analyzed, the results can be given as histograms in which each individual column represents a band of a certain width (in microns), whereas the height represents the percentage of sample present in that band. The principal statistical distribution values calculated by the software of this apparatus are, amongst other things, the D50, that is, the size in microns for which 50% of the sample is smaller and 50% is larger. Another important measurement is the “span”, which is the measurement of the width of the distribution. This width is calculated by the following ratio: [formula] where D90 and D10 have meanings analogous to that of D50. The smaller this “span” index is, the more reliable the particle distribution of the sample examined will be. The apparatus used for the determination of the PSD was a Malvern Master Sizer 2000 and the method used was the wet method with the use of H2O as the dispersant with a concentration of 0.5% of Tween 20 as surfactant. The measurements were taken at a concentration of dexloxiglumide of about 0.06-0.08% after ultrasound sonication for 60 sec which enabled the accumulations to be broken up without breaking the crystals. Note: The particle sizes given both in the text and in the claims are not absolute quantities but are relative to the measurement method used (in this case the Malvern Master Sizer 2000 instrument with the method described in Example 1).
# [4] = Morphological analysis of the crystals by microscopy (300x); format: physicochemical; conditions: photographs, 300x magnification
# Experimental: Morphological analysis performed by microscopic analysis of the crystals obtained by crystallization from ethanol/H2O and isopropyl ether, respectively, also confirms what had already been seen with by particle-size analysis by laser-beam diffraction.
# It can be seen from a comparison of the two images of FIG. 2 that the product crystallized from isopropyl ether has crystals with well-defined, lamellar shapes with an average diameter of about 70-100 μm, whereas the other lot has crystals of irregular shape with very many smaller aggregated crystals.
Carr index [2],shape of particle distribution [3],span index [3],D50 (mean size measurement) [3],percentage of particles <10 μm (fine particles) [3],average diameter of crystals [4],Structure (SMILES),antagonistic activity towards CCK1 receptor [1]
,,,,,,"CCCCCN(CCCOC)C(=O)[C@@H](CCC(=O)O)NC(=O)c1ccc(Cl)c(Cl)c1 [Dexloxiglumide, (R)-4-[(3,4-dichlorobenzoyl)amino]-5-[(3-methoxypropyl)-pentylamino]-5-oxo-pentanoic acid]",potent antagonistic activity
> 33,bimodal,4.668,23.6 μm,29.5%,,"CCCCCN(CCCOC)C(=O)[C@@H](CCC(=O)O)NC(=O)c1ccc(Cl)c(Cl)c1 [dexloxiglumide obtained by crystallization from H2O/ethanol ] [(R)-4-[(3,4-dichlorobenzoyl)amino]-5-[(3-methoxypropyl)-pentylamino]-5-oxo-pentanoic acid, reference compound]",
about 12,practically unimodal,1.608,97.3 μm,4.23%,70-100 μm,"CCCCCN(CCCOC)C(=O)[C@@H](CCC(=O)O)NC(=O)c1ccc(Cl)c(Cl)c1 [lot PP9282/43851, (R)-4-[(3,4-dichlorobenzoyl)amino]-5-[(3-methoxypropyl)-pentylamino]-5-oxo-pentanoic acid]",
